“Also recorded” adds a separate entry of the source.
Legend:
REH cells = assay: MTT cytotoxicity assay, REH cell line; format: cell-based, human; details: 48 h of treatment
Procedure: (§1) All compounds were resuspended in DMSO at stock concentration of 20 mM and stored at −20° C. For cytotoxicity testing, the dilutions from the stock solutions were made in culture medium (RPMI-1640 plus 10% of fetal bovine serum, 100 IU/ml penicillin and 100 µg/mL Streptomycin), immediately before being discharged to the cells.
(§2) The REH and Jurkat cell lines were maintained in
(§3) RPMI-1640 medium with 10% FBS (fetal bovine serum), 100 IU/mL penicillin, 100 µg/mL streptomycin and incubated at 37° C. and 5% CO2. Cytotoxicity assays were performed according to the method described in the literature (Pieters, R.; et al. In vitro drug sensitivity of cells from children with leukemia using the MTT assay with improved culture conditions. Blood, 1990, 76, 2327-2336; Pieters, R.; et al. Relation of cellular drug resistance to long-term clinical outcome in childhood acute lymphoblastic leukaemia. Lancet, 1991, 338, 399-403 e Kaspers, G. J.; et al. In vitro cellular drug resistance and prognosis in newly diagnosed childhood acute lymphoblastic leukemia. Blood, 1997, 90, 2723). Cells were resuspended at a concentration of 3.75 10^5 cells/mL in culture medium as described. Eighty microliters of this suspension were seeded into plates with 96 round-bottom wells, containing 20 microliters of different concentrations of compound or vehicle alone. Each treatment was done in triplicate. After 48 hours of incubation at 37° C. and 5% CO2, 20 μL of MTT solution was added (5 mg/mL of 1x PBS), followed by further incubation for 4 hours and 30 minutes at 37° C. and 5% CO2. During these 4 hours and 30 minutes, MTT (yellowish) is metabolized to formazan salt (bluish in color) by living cells. After this, 100 μL sodium dodecyl sulphate (SDS) 10%+0.1M of HCl were added to dissolve the formazan crystals. After incubating overnight, absorbance reading at 570 nm was carried out. The percentage of cells surviving the treatment were calculated relative to the number of surviving cells in the medium without addition of the compounds in question (“negative control”).
(§4) c) Determination of IC: IC50 is defined as the concentration of a compound at which 50% of maximal inhibition is obtained. After reading the absorbance, survival curves were constructed and the values of IC50 were obtained with the GraphPad Prism software.

Jurkat cells = assay: MTT cytotoxicity assay, Jurkat cell line; format: cell-based, human; details: 48 h of treatment, read-out: IC50 T (Jurkat)
Procedure: as §1, §2, §3, §4

[1] = test system: human leukemic Jurkat cells and HEK; assay: Screening of compounds by cell viability assay (MTT) in leukemic cells; format: cell-based; details: leukemic cells of Jurkat and HEK strains
Procedure: RPMI-1640 medium with 10% FBS (fetal bovine serum), 100 IU/mL penicillin, 100 µg/mL streptomycin and incubated at 37° C. and 5% CO2. Cytotoxicity assays were performed according to the method described in the literature (Pieters, R.; et al. In vitro drug sensitivity of cells from children with leukemia using the MTT assay with improved culture conditions. Blood, 1990, 76, 2327-2336; Pieters, R.; et al. Relation of cellular drug resistance to long-term clinical outcome in childhood acute lymphoblastic leukaemia. Lancet, 1991, 338, 399-403 e Kaspers, G. J.; et al. In vitro cellular drug resistance and prognosis in newly diagnosed childhood acute lymphoblastic leukemia. Blood, 1997, 90, 2723). Cells were resuspended at a concentration of 3.75 10^5 cells/mL in culture medium as described. Eighty microliters of this suspension were seeded into plates with 96 round-bottom wells, containing 20 microliters of different concentrations of compound or vehicle alone. Each treatment was done in triplicate. […] After incubating overnight, absorbance reading at 570 nm was carried out. The percentage of cells surviving the treatment were calculated relative to the number of surviving cells in the medium without addition of the compounds in question (“negative control”). […]

[2] = biological target: Trypanosoma cruzi cruzain (Trypanosoma cruzi, UniProt P25779); details: cited from earlier work
Sequence of Trypanosoma cruzi cruzain (P25779 123-467): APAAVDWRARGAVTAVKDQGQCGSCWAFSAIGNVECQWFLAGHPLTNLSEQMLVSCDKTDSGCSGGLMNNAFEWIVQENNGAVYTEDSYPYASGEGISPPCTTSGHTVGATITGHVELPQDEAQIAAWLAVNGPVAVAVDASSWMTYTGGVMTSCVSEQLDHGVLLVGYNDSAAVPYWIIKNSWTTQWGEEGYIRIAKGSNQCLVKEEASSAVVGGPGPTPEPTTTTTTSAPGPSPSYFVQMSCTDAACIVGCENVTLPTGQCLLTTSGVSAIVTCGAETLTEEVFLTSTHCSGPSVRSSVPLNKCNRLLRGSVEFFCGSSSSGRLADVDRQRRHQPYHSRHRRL

[3] = test system: healthy and phytohemagglutinin-stimulated lymphocytes; assay: MTT assay on normal lymphocytes stimulated with phytohemagglutinin; format: cell-based, human; details: for Percentage of survival: 48 h, MTT
Procedure: for the test of compound 07 against normal lymphocytes, blood from human donors was separated in a ficoll gradient and the mononuclear cells were cultivated at 200,000 cells/well, in 80 microliters of RPMI-1640 (containing 10% FBS, 100 IU/mL penicillin and 100 μg/mL streptomycin) and 20 microliters of phytohemagglutinin solution (Cultilab) in each well for stimulation of T lymphocytes. Compound 07 was added in serial dilutions (50%) from 300 to 1 nm. As a control, parallel tests were run with cells from leukemic Jurkat and REH cell lines, and experiments with colchicine with the same concentrations as compound 07. Cytotoxicity was assessed after 48 hours by the MTT method, as described Above.

| melting point [°C] | Compound | IC50 (REH cells) [nM] | IC50 (Jurkat cells) [nM] | other results |
| --- | --- | --- | --- | --- |
| 247 to 248 | COc1cc(/C=N/NC(=O)c2cc(OC)c(OC)c(OC)c2)cc(I)c1O [Compound 05] | – | – | – |
| 230 to 231 | COc1cc(C(=O)N/N=C/c2cnc[nH]2)cc(OC)c1OC [Compound 17] | – | – | – |
| 245 to 246 | COc1cccc(OC)c1/C=N/NC(=O)c1cc(OC)c(OC)c(OC)c1 [Compound 21] | – | – | – |
| 206 to 208 | COc1cc(C(=O)N/N=C/c2ccc(Br)cc2O)cc(OC)c1OC [Compound 26] | – | – | – |
| 203 to 204 | COc1cc(C(=O)N/N=C/c2ccc(Cl)c(C(F)(F)F)c2)cc(OC)c1OC [Compound 29] | – | – | – |
| 170 to 172 | COc1cc(C2OC(c3cc(OC)c(OC)c(OC)c3)=NN2C(C)=O)ccc1O (stereo not drawn) [Compound 37] | – | – | – |

Further lines, the compound ahead of its results:

| Compound | melting point [°C] | IC50 (REH cells) [nM] | IC50 (Jurkat cells) [nM] | other results |
| --- | --- | --- | --- | --- |
| COc1cc(C(=O)NN=Cc2ccc(Br)cc2)cc(OC)c1OC [Compound 02] | – | 33.7 | 31.4 | antileukemic activity [1]: excellent antileukemic activity; also recorded: significant antileukemic activity; inhibitory activity of cruzain [2]: did not show inhibitory activity |
| COc1cc(C(=O)NN=Cc2ccc(Cl)cc2)cc(OC)c1OC [Compound 09] | – | 328 | 203 | – |
| COc1cc(C(=O)NN=Cc2ccc3c(c2)OCO3)cc(OC)c1OC [Compound 10] | – | 206 | 154 | – |
| COc1cc(C(=O)NN=Cc2ccccc2Cl)cc(OC)c1OC [Compound 11] | – | 459 | 189 | – |
| COc1cc(C(=O)NN=Cc2ccc(C)cc2)cc(OC)c1OC [Compound 16] | – | 70.6 | 71.5 | – |
| COc1cc(C2OC(c3cc(OC)c(OC)c(OC)c3)=NN2C(C)=O)cc(Br)c1O (stereo not drawn) [Compound 36] | 177 to 179 | – | – | – |
| COc1cc(C2=NN(C(C)=O)C(c3cccc4ccccc34)O2)cc(OC)c1OC (stereo not drawn) [Compound 38] | 189 to 192 | – | – | – |
| Colchicine [reference compound] | – | 9.5 | 7.7 | Percentage of survival ([3]; 4.6 nM): 109%; Percentage of survival ([3]; 9.38 nM): 110%; Percentage of survival ([3]; 18.75 nM): 95%; Percentage of survival ([3]; 37.5 nM): 84%; Percentage of survival ([3]; 75 nM): 75%; Percentage of survival ([3]; 150 nM): 69%; toxicity relative to the control / inhibition on the viability of lymphocytes T ([3]; 300 nM): 37%; Percentage of survival ([3]; 300 nM): 63% |

From patent US20150191445A1, “ACYL-HYDRAZONE AND OXADIAZOLE COMPOUNDS, PHARMACEUTICAL COMPOSITIONS CONTAINING THE SAME AND USES THEREOF” (Universidade Federal de Santa Catarina, priority 2011, published 2015)
